*1 amine or outer side, *2 acyl side, *3 side chain or, on linkers, in order; H or OH if unused. Where a SMILES comes first, the peptide text is derived from it. Bridges are numbered along the chain shown (N, C = ends). Side-chain parts run from the residue outwards. [ ]: non-standard residue; d: D form. The star is where a group is joined. γGlu = O=C(O)[C@H](CCC(=O)[*:2])N[*:1]; Palmitoyl = CCCCCCCCCCCCCCCC(=O)*; Nle = CCCC[C@H](N)C(=O)O; Aib = CC(C)(N)C(=O)O
How the values were obtained:
human GLP1R = target: T1, human GLP1R (Homo sapiens, UniProt P43220); experiment: cAMP activity assay, cells expressing human GLP1R; format: cell-based; details: cAMP production, 1 hour, table does not say whether with or without 20% human serum, read-out: GLPIR EC50 human
T1 construct: expressed in transfected cells
T1 sequence (P43220 24-463): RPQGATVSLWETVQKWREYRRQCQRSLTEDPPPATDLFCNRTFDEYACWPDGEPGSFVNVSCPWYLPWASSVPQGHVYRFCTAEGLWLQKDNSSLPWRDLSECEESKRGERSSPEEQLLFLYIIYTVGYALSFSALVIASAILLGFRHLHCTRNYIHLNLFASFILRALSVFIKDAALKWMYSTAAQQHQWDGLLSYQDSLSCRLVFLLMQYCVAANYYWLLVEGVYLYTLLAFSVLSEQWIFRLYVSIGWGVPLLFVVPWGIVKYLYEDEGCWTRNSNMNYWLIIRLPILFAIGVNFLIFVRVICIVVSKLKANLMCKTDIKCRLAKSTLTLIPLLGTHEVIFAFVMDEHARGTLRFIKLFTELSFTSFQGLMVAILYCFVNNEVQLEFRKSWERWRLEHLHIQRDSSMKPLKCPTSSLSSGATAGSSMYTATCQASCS
Description: Activity of the peptides at the Glucagon receptor (GCGR) and GLP-1 receptor (GLP1R) was measured in a cAMP activity assay. Peptides were dissolved in 100% DMSO and serially diluted to generate 10 point titrations. The peptide solutions were then transferred into 384-well assay plates (150 nL/well). Assay ready frozen cells expressing human GLP1R or human GCGR were suspended in growth media consisting of DMEM medium (GIBCO), 10% FBS (GIBCO), 1×NEAA(GIBCO), 1×P/S (GIBCO), 10 ug/ml Blasticidin (GIBCO) and 200 μg/mL Hygromycin (GIBCO). […] The cell suspensions (15 μL) were then added to the assay plates containing the peptide solutions (30,000 cells/well for human GCGR; 10,000 cells/well for human GLP1R). […] Production of cAMP was determined using […] kits (DiscoverX) following manufacturer protocol. The plates were incubated for overnight at room temperature in the dark. Luminescence was measured using an EnVision Multilabel plate reader (Perkin Elmer). Native GLP-1 and Glucagon (Bachem) are used as control peptides.

human GCGR = target: T2, human GCGR (Homo sapiens, UniProt P47871); experiment: cAMP activity assay, cells expressing human GCGR; format: cell-based; details: ratio of human GCGR EC50 to human GLP1R EC50
T2 construct: expressed in transfected cells
T2 sequence (P47871 26-477): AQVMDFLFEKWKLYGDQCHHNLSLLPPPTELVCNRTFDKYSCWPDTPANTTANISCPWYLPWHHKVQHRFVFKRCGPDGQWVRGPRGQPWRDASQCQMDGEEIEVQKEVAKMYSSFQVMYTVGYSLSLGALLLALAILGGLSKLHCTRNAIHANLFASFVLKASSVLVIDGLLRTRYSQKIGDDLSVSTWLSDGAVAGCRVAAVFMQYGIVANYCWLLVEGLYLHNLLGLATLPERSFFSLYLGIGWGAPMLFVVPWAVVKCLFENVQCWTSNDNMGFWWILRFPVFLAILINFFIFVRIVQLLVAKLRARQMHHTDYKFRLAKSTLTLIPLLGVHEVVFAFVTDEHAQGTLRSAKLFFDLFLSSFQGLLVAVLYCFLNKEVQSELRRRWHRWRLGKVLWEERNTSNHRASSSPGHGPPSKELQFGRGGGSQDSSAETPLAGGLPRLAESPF

EC50 (human GLP1R) [nM]	hGCGR/hGLPIR (hTone) (human GCGR)	Compound
0.17	1.25	CCCCCCCCCCCCCCCC(=O)N[C@@H](CCC(=O)N[C@@H](CCC(=O)NCCCC[C@H](NC(=O)[C@H](CC(=O)O)NC(=O)[C@H](CO)NC(=O)[C@@H](NC(=O)[C@H](Cc1ccccc1)NC(=O)[C@@H](NC(=O)CNC(=O)[C@H](CCC(N)=O)NC(=O)C(C)(C)NC(=O)[C@@H](N)Cc1c[nH]cn1)[C@@H](C)O)[C@@H](C)O)C(=O)N[C@@H](CO)C(=O)N[C@@H](CCCCN)C(=O)N[C@@H](Cc1ccc(O)cc1)C(=O)N[C@@H](CC(C)C)C(=O)N[C@@H](CC(=O)O)C(=O)NC(C)(C)C(=O)N[C@H]1CCCCNC(=O)CC[C@@H](C(=O)N[C@@H](Cc2ccccc2)C(=O)N[C@H](C(=O)N[C@@H](CCC(N)=O)C(=O)N[C@@H](Cc2c[nH]c3ccccc23)C(=O)N[C@@H](CC(C)C)C(=O)N[C@@H](CCCC)C(=O)N[C@@H](CC(=O)O)C(=O)N[C@H](C(N)=O)[C@@H](C)O)C(C)C)NC(=O)[C@H](CCC(N)=O)NC(=O)[C@H](C)NC(=O)[C@H](C)NC1=O)C(=O)O)C(=O)O [SEQ ID NO: 16] (H-H[Aib]QGTFTSDK([γGlu-γGlu-Palmitoyl])SKYLD[Aib]KAAQEFVQWL[Nle]DT-NH2; lactam 17-21; N-terminus assumed)
0.17	0.6	CCCCCCCCCCCCCCCC(=O)N[C@@H](CCC(=O)N[C@@H](CCC(=O)NCCCC[C@H](NC(=O)[C@H](CC(=O)O)NC(=O)[C@H](CO)NC(=O)[C@@H](NC(=O)[C@H](Cc1ccccc1)NC(=O)[C@@H](NC(=O)CNC(=O)[C@H](CCC(N)=O)NC(=O)[C@@H](CO)NC(=O)[C@@H](N)Cc1c[nH]cn1)[C@@H](C)O)[C@@H](C)O)C(=O)N[C@@H](CO)C(=O)N[C@@H](CCCCN)C(=O)N[C@@H](Cc1ccc(O)cc1)C(=O)N[C@@H](CC(C)C)C(=O)N[C@@H](CC(=O)O)C(=O)N[C@@H](C)C(=O)N[C@@H](CCCNC(=N)N)C(=O)N[C@@H](C)C(=O)N[C@@H](C)C(=O)N[C@H]1CCCCNC(=O)CC[C@@H](C(=O)N[C@@H](Cc2c[nH]c3ccccc23)C(=O)N[C@@H](CC(C)C)C(=O)N[C@@H](CC(C)C)C(=O)N[C@@H](CC(=O)O)C(=O)N[C@H](C(N)=O)[C@@H](C)O)NC(=O)[C@H](C(C)C)NC(=O)[C@H](Cc2ccccc2)NC(=O)[C@H](CC(=O)O)NC1=O)C(=O)O)C(=O)O [SEQ ID NO: 11]
–	0.56	CCCCCCCCCCCCCCCC(=O)N[C@@H](CCC(=O)N[C@@H](CCC(=O)NCCCC[C@H](NC(=O)[C@H](CC(=O)O)NC(=O)[C@H](CO)NC(=O)[C@@H](NC(=O)[C@H](Cc1ccccc1)NC(=O)[C@@H](NC(=O)CNC(=O)[C@H](CCC(N)=O)NC(=O)[C@@H](CO)NC(=O)[C@@H](N)Cc1c[nH]cn1)[C@@H](C)O)[C@@H](C)O)C(=O)N[C@@H](CO)C(=O)N[C@@H](CCCCN)C(=O)N[C@@H](Cc1ccc(O)cc1)C(=O)N[C@@H](CC(C)C)C(=O)N[C@@H](CC(=O)O)C(=O)N[C@@H](C)C(=O)N[C@@H](CCCNC(=N)N)C(=O)N[C@@H](C)C(=O)N[C@@H](C)C(=O)N[C@@H](CCC(N)=O)C(=O)N[C@@H](CC(=O)O)C(=O)N[C@@H](Cc1ccccc1)C(=O)N[C@H](C(=O)N[C@H]1CCCCNC(=O)CC[C@@H](C(=O)N[C@H](C(N)=O)[C@@H](C)O)NC(=O)[C@H](CC(C)C)NC(=O)[C@H](CC(C)C)NC(=O)[C@H](Cc2c[nH]c3ccccc23)NC1=O)C(C)C)C(=O)O)C(=O)O [SEQ ID NO: 13] (H-H[dS]QGTFTSDK([γGlu-γGlu-Palmitoyl])SKYLDARAAQDFVKWLLET-NH2; lactam 24-28; N-terminus assumed)

Source: patent US20230285514A1, “STAPLED LACTAM CO-AGONISTS OF THE GLUCAGON AND GLP-1 RECEPTORS” (Merck Sharp & Dohme LLC, priority 2019, published 2023)
